Read-outs that look alike come from different tables or passages of the source.
Columns and labels:
Format in all cases: in vitro ADME
hOCT1 = target: T1, hOCT1 (Homo sapiens, UniProt O15245); assay: Inhibition of hOCT1-mediated substrate uptake in transfected HEK293 cells; details: for In vivo DDI study recommendation, hOCT1: FDA-recommended criteria
T1 construct: expressed in transfected cells
T1 sequence (O15245 1-554): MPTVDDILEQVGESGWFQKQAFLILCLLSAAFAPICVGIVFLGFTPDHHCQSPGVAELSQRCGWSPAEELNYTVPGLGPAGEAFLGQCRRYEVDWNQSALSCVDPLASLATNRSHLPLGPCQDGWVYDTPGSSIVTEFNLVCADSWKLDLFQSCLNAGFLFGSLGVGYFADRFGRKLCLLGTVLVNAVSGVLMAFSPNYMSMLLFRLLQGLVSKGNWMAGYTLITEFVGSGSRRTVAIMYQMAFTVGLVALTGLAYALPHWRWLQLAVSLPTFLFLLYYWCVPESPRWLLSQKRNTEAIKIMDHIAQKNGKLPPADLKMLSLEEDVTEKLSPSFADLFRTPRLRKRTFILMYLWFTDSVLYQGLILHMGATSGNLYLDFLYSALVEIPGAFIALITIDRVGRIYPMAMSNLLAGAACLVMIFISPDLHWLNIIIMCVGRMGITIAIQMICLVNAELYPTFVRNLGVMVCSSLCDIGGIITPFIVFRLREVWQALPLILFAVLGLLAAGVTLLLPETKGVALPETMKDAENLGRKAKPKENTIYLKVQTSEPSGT

hOCT3 = target: T2, hOCT3 (Homo sapiens, UniProt O75751); assay: Inhibition of hOCT3-mediated substrate uptake in transfected HEK293 cells; details: for In vivo DDI study recommendation, hOCT3: FDA-recommended criteria
T2 construct: expressed in transfected cells
T2 sequence (O75751 1-556): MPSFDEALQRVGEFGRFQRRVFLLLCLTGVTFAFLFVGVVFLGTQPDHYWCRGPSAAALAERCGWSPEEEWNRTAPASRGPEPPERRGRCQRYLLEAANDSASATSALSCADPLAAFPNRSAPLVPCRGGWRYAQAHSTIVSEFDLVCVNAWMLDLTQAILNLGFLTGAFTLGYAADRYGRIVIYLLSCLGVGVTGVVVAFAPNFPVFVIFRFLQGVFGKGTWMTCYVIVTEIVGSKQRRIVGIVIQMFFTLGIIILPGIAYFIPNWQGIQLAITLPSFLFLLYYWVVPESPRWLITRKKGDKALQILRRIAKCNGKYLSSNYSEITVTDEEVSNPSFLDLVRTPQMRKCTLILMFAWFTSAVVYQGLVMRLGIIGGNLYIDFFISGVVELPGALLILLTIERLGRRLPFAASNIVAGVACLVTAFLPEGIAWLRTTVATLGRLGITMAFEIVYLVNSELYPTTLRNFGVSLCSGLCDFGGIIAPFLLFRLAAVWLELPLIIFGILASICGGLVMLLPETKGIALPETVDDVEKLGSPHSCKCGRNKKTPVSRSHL

hMATE1 = target: T3, hMATE1 (Homo sapiens, UniProt Q96FL8); assay: Inhibition of hMATE1-mediated substrate uptake in transfected HEK293 cells (pH 8.0); details: for In vivo DDI study recommendation, hMATE1: FDA-recommended criteria
T3 construct: expressed in transfected cells
T3 sequence (Q96FL8 1-570): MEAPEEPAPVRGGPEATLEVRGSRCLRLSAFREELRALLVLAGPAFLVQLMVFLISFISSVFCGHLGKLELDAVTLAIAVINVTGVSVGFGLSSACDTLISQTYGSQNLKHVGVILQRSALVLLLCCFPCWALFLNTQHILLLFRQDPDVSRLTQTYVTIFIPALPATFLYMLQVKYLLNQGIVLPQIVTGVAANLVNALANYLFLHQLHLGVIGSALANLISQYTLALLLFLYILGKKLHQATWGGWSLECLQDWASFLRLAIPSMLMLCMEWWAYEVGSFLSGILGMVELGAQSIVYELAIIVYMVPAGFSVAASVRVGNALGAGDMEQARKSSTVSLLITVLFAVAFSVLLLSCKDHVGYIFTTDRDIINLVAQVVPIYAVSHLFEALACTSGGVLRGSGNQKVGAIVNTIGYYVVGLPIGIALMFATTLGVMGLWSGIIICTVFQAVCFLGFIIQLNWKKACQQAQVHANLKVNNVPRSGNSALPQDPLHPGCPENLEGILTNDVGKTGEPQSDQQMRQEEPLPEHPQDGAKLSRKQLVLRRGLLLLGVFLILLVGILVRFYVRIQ

hOCT2 = target: T4, hOCT2 (Homo sapiens, UniProt O15244); assay: Inhibition of hOCT2-mediated substrate uptake in transfected HEK293 cells; parameters: expressed in transfected cells; details: for In vivo DDI study recommendation, hOCT2: FDA-recommended criteria
T4 sequence (O15244 1-555): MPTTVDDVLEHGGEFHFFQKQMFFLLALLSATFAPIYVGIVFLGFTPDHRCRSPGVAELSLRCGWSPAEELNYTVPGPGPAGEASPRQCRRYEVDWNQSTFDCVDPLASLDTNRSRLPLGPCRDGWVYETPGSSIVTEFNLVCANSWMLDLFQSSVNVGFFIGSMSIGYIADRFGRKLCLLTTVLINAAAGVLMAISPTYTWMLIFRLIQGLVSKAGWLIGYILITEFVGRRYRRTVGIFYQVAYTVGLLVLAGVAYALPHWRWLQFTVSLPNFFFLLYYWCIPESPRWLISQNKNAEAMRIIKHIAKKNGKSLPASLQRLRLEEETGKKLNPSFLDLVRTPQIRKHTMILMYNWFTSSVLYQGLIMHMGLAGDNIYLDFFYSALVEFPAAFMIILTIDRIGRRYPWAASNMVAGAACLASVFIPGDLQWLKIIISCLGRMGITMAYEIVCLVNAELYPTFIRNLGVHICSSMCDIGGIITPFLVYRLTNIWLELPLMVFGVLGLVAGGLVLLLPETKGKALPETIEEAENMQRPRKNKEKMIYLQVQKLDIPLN

[1] = HEK293, 20 µM inhibitor, 1 µM mIBG, 2 min, 37 °C

With `COc1cc(N2CCC(N3CCN(C)CC3)CC2)ccc1Nc1ncc(Cl)c(Nc2ccccc2P(C)(C)=O)n1` [Brigatinib] the IC50 (hOCT1) was 1120 ± 40 nM, the inhibition at 20 µM (hOCT1; [1]) was greater than 50% and the “substrate dependency, hOCT1: more potent with metformin than with MPP+” value (hOCT1; IC50 ratio MPP+/metformin) was roughly 22 fold. The “substrate dependency, hOCT1: more potent with metformin than with mIBG” value (hOCT1; IC50 ratio mIBG/metformin) was “approximately 15 fold”, the IC50 (hOCT1; substrate 1 µM [3H]MPP+, HEK293, 2 min, 37 °C, mean ± SD, read-out: IC50, hOCT1-mediated MPP+ uptake) was 25100 ± 1200 nM and the IC50 (hOCT1; substrate 1 µM mIBG, HEK293, 2 min, 37 °C, mean ± SD, read-out: IC50, hOCT1-mediated mIBG uptake) was 17100 ± 600 nM. The “In vivo DDI study recommendation, hOCT1” value (hOCT1; substrate MPP+) was “No”, the “In vivo DDI study recommendation, hOCT1” value (hOCT1; substrate mIBG) was “No” and the “In vivo DDI study recommendation, hOCT1” value (hOCT1; substrate metformin) was “Yes”. For the same molecule, the IC50 (hOCT3) was 850 ± 70 nM, the inhibition at 20 µM (hOCT3; HEK293, read-out: inhibition of mIBG uptake by hOCT3) was greater than 80% and the “substrate dependency, hOCT3: differences in IC50 values across substrates” value (hOCT3; metformin, mIBG, MPP+) was “up to 3 fold”. For the same molecule, the IC50 (hOCT3; substrate 1 µM [3H]MPP+, HEK293, 2 min, 37 °C, mean ± SD, read-out: IC50, hOCT3-mediated MPP+ uptake) was 2540 ± 140 nM, the IC50 (hOCT3; substrate 1 µM mIBG, HEK293, 2 min, 37 °C, mean ± SD, read-out: IC50, hOCT3-mediated mIBG uptake) was 1200 ± 30 nM and the “In vivo DDI study recommendation, hOCT3” value (hOCT3; substrate MPP+) was “Yes”. For the same molecule, the “In vivo DDI study recommendation, hOCT3” value (hOCT3; substrate mIBG) was “Yes”, the “In vivo DDI study recommendation, hOCT3” value (hOCT3; substrate metformin) was “Yes” and the inhibition at 20 µM (hMATE1; [1]) was greater than 80%. It also gave an IC50 (hMATE1; IC50, hMATE1-mediated MPP+ uptake, substrate 1 µM [3H]MPP+, HEK293, 2 min, 37 °C, mean ± SD) of 2030 ± 240 nM, an IC50 (hMATE1; IC50, hMATE1-mediated [14C]metformin uptake, Coincubation, coincubation (no preincubation), preincubation study, 8.9 µM [14C]metformin, 2 min uptake) of 1410 ± 60 nM and an IC50 (hMATE1; IC50, hMATE1-mediated [14C]metformin uptake, Preincubation, 30-min preincubation with inhibitor at 37 °C, 8.9 µM [14C]metformin, 2 min uptake) of 970 ± 90 nM. The IC50 (hMATE1; IC50, hMATE1-mediated mIBG uptake, substrate 1 µM mIBG, HEK293, 2 min, 37 °C, mean ± SD) was 1930 ± 150 nM, the IC50 (hMATE1; IC50, hMATE1-mediated metformin uptake, substrate 8.9 µM [14C]metformin, HEK293, 2 min, 37 °C, mean ± SD) was 1670 ± 140 nM and the “substrate dependency, hMATE1: differences in IC50 values across substrates” value (hMATE1; metformin, mIBG, MPP+) was “below two-fold”. The “In vivo DDI study recommendation, hMATE1” value (hMATE1; substrate MPP+) was “Yes”, the “In vivo DDI study recommendation, hMATE1” value (hMATE1; substrate mIBG) was “Yes” and the “In vivo DDI study recommendation, hMATE1” value (hMATE1; substrate metformin) was “Yes”. It also gave an IC50 (hOCT2; 30-min preincubation with inhibitor at 37 °C, 8.9 µM [14C]metformin, 2 min uptake, read-out: IC50, hOCT2-mediated [14C]metformin uptake, Preincubation) of 15500 ± 500 nM, an IC50 (hOCT2; coincubation (no preincubation), preincubation study, 8.9 µM [14C]metformin, 2 min uptake, read-out: IC50, hOCT2-mediated [14C]metformin uptake, Coincubation) of 36000 ± 1100 nM and an IC50 (hOCT2; substrate 1 µM [3H]MPP+, HEK293, 2 min, 37 °C, mean ± SD, read-out: IC50, hOCT2-mediated MPP+ uptake) greater than 300000 nM. The IC50 (hOCT2; substrate 1 µM mIBG, HEK293, 2 min, 37 °C, mean ± SD, read-out: IC50, hOCT2-mediated mIBG uptake) was greater than 100000 nM, the IC50 (hOCT2; substrate 8.9 µM [14C]metformin, HEK293, 2 min, 37 °C, mean ± SD, read-out: IC50, hOCT2-mediated metformin uptake) was 30200 ± 1500 nM and the “In vivo DDI study recommendation, hOCT2” value (hOCT2; substrate MPP+) was “No”. For the same molecule, the “In vivo DDI study recommendation, hOCT2” value (hOCT2; substrate mIBG) was “No”, the “In vivo DDI study recommendation, hOCT2” value (hOCT2; substrate metformin) was “No” and the “inhibition of hOCT2 (in words)” value (hOCT2; substrates metformin, mIBG, MPP+) was “not a strong inhibitor”.

Source: PMC10534724, “Interaction of ALK Inhibitors with Polyspecific Organic Cation Transporters and the Impact of Substrate-Dependent Inhibition on the Prediction of Drug–Drug Interactions” (Pharmaceutics, 2023)
